Measured values reported in ChEMBL document CHEMBL5634133, “Indirubin derivatives as bifunctional molecules inducing DNA damage and targeting PARP for the treatment of cancer” (Eur J Med Chem, 2023).
Calls of active or inactive are those of the source. No cut-off for these calls is given here.

Legend:
[1] = AUC(0 to t) in BALB/c mouse at 20 mg/kg, po and measured after 24 hrs by LC-MS/MS analysis; format: ADME, organism-based; conditions: in vivo
[2] = Toxicity in BALB/c nude mouse xenografted with human HCT-116 cells assessed as tissue morphology at 20 mg/kg, ip administered for 14 days by hematoxylin and eosin staining based assay; format: organism-based; conditions: in vivo, 336 h, time 14 day
HCT-116 [3] = assay: Antitumor activity against human HCT-116 cells xenografted in BALB/c nude mouse assessed as suppression of tumor growth at 10 mg/kg, ip administered for 14 days relative to control; format: functional, organism-based; conditions: time 14.0 day
HCT-116 [4] = assay: Induction of apoptosis in human HCT-116 cells assessed as late apoptotic cells at 1 uM incubated for 48 hrs by Annexin V-PE/7-AAD staining based flow cytometry analysis (reference value: 0.39 %); format: functional
[5] = AUC(0 to infinity) in BALB/c mouse at 20 mg/kg, po and measured after 24 hrs by LC-MS/MS analysis; format: ADME, organism-based; conditions: in vivo
HCT-116 [6] = assay: Antiproliferative activity against human HCT-116 cells assessed as inhibition of colony formation incubated for 48 hrs medium replaced with every 14 days by crystal violet staining based optical microscope; format: functional, cell-based; conditions: time 14.0 day
HCT-116 [7] = assay: Induction of apoptosis in human HCT-116 cells assessed as increase in Cleaved-Caspase-3 protein expression level by Western blotting analysis; format: functional, cell-based; conditions: dose 0.25-1 µM
HCT-116 [8] = assay: Antiproliferative activity against human HCT-116 cells assessed as decrease in number of EdU-positive cells at 0.25 to 1 uM incubated for 48 hrs in presence of EdU labeling agent by Hoechst staining based confocal microscopy; format: functional, cell-based; conditions: dose 0.25-1 µM
A549 = assay: Antiproliferative activity against human A549 cells assessed as inhibition of cell viability incubated for 72 hrs by CCK8 assay; format: functional, cell-based; conditions: A549, 72 h
HCT-116 [9] = assay: Induction of DNA damage in human HCT-116 cells assessed as increase in gammaH2AX phosphorylation level incubated for 48 hrs by DAPI staining based immunofluorescence analysis; format: functional, cell-based; conditions: dose 0.25-1 µM
NCM460 = assay: Antiproliferative activity against human NCM460 cells assessed as inhibition of cell viability incubated for 72 hrs by CCK8 assay; format: functional, cell-based; conditions: NCM460, 72 h
HCT-116 [10] = assay: Induction of apoptosis in human HCT-116 cells assessed as late apoptotic cells at 0.25 uM incubated for 48 hrs by Annexin V-PE/7-AAD staining based flow cytometry analysis (reference value: 0.39 %); format: functional
HCT-116 [11] = assay: Induction of apoptosis in human HCT-116 cells assessed as necrotic cells at 1 uM incubated for 48 hrs by Annexin V-PE/7-AAD staining based flow cytometry analysis (reference value: 0 %); format: functional
[12] = Half life in BALB/c mouse at 20 mg/kg, po and measured after 24 hrs by LC-MS/MS analysis; format: ADME, organism-based; conditions: in vivo
HCT-116 [13] = assay: Induction of apoptosis in human HCT-116 cells assessed as necrotic cells at 0.5 uM incubated for 48 hrs by Annexin V-PE/7-AAD staining based flow cytometry analysis (reference value: 0 %); format: functional
HCT-116 [14] = assay: Induction of apoptosis in human HCT-116 cells assessed as viable cells at 0.25 uM incubated for 48 hrs by Annexin V-PE/7-AAD staining based flow cytometry analysis (reference value: 92.8 %); format: functional; conditions: read-out: Activity
HCT-116 [15] = assay: Induction of DNA damage in human HCT-116 cells assessed as increase in gammaH2AX phosphorylation level incubated for 48 hrs by Western blotting analysis; format: functional, cell-based; conditions: dose 0.25-1 µM
HCT-116 [16] = assay: Induction of apoptosis in human HCT-116 cells assessed as increase in Cleaved-PARP protein expression level by Western blotting analysis; format: functional, cell-based; conditions: dose 0.25-1 µM
MV4-11 = assay: Antiproliferative activity against human MV4-11 cells assessed as inhibition of cell viability incubated for 72 hrs by CCK8 assay; format: functional, cell-based; conditions: MV4-11, 72 h
HCT-116 [17] = assay: Induction of apoptosis in human HCT-116 cells assessed as increase in accumulation of cells at S phase at 0.25 to 1 uM incubated for 48 hrs by propidium iodide staining based flow cytometry analysis (reference value: 24.67%); format: functional; conditions: dose 0.25-1 µM
HCT-116 [18] = assay: Induction of apoptosis in human HCT-116 cells assessed as viable cells at 1 uM incubated for 48 hrs by Annexin V-PE/7-AAD staining based flow cytometry analysis (reference value: 92.8 %); format: functional; conditions: read-out: Activity
HCT-116 [19] = assay: Induction of apoptosis in human HCT-116 cells assessed as decrease in Caspase-3 protein expression level by Western blotting analysis; format: functional, cell-based; conditions: dose 0.25-1 µM
HCT-116 [20] = assay: Induction of apoptosis in human HCT-116 cells assessed as increase in Bax protein expression level by Western blotting analysis; format: functional, cell-based; conditions: dose 0.25-1 µM
HCT-116 [21] = assay: […] in human HCT-116 cells assessed as decrease in accumulation of cells at G2/M phase at 0.25 to 1 uM incubated for 48 hrs by propidium iodide staining based flow cytometry analysis (Rvb =34.99%); format: functional; parameters: scale not given: the % may be the effect or the level left; conditions: dose 0.25-1 µM
HCT-116 [22] = assay: Antitumor activity against human HCT-116 cells xenografted in BALB/c nude mouse assessed as tumor growth inhibition at 10 mg/kg, ip administered for 14 days relative to control; format: functional; conditions: HCT-116, 336 h, time 14 day, read-out: TGI
HCT-116 [23] = assay: Induction of apoptosis in human HCT-116 cells assessed as decrease in Bcl-2 protein expression level by Western blotting analysis; format: functional, cell-based; conditions: dose 0.25-1 µM
HCT-116 [24] = assay: Induction of apoptosis in human HCT-116 cells assessed as early apoptotic cells at 1 uM incubated for 48 hrs by Annexin V-PE/7-AAD staining based flow cytometry analysis (reference value: 6.78 %); format: functional
[25] = target: T1, Poly [ADP-ribose] polymerase 1 (Homo sapiens, UniProt P09874); assay: Inhibition of PARP1 (unknown origin) incubated for 10 mins by chemiluminescence assay
HCT-116 [26] = assay: Antitumor activity against human HCT-116 cells xenografted in BALB/c nude mouse assessed as tumor growth inhibition at 20 mg/kg, ip administered for 14 days relative to control; format: functional; conditions: Mus musculus, HCT-116, 336 h, time 14 day, read-out: TGI
HCT-116 [27] = assay: Induction of apoptosis in human HCT-116 cells assessed as necrotic cells at 0.25 uM incubated for 48 hrs by Annexin V-PE/7-AAD staining based flow cytometry analysis (reference value: 0 %); format: functional
MCF7 = assay: Antiproliferative activity against human MCF7 cells assessed as inhibition of cell viability incubated for 72 hrs by CCK8 assay; format: functional, cell-based; conditions: MCF7, 72 h
[28] = target: T1, Poly [ADP-ribose] polymerase 1; conditions: dose 10.0 nM, time 10.0 min
[29] = Clearance in BALB/c mouse at 20 mg/kg, po and measured after 24 hrs by LC-MS/MS analysis; format: ADME, organism-based; conditions: in vivo
HCT-116 [30] = assay: Antiproliferative activity against human HCT-116 cells assessed as inhibition of cell viability incubated for 72 hrs by CCK8 assay; format: functional, cell-based; conditions: HCT-116, 72 h
[31] = target: T1, Poly [ADP-ribose] polymerase 1; assay: Inhibition of PARP1 in human HCT-116 cells assessed as inhibition of PARP-induced PARylation incubated for 48 hrs by Western blotting analysis; format: cell-based; conditions: dose 0.25-1 µM
HCT-116 [32] = assay: Induction of apoptosis in human HCT-116 cells assessed as early apoptotic cells at 0.5 uM incubated for 48 hrs by Annexin V-PE/7-AAD staining based flow cytometry analysis (reference value: 6.78 %); format: functional
HCT-116 [33] = assay: Antitumor activity against human HCT-116 cells xenografted in BALB/c nude mouse assessed as reduction in tumor weight at 10 mg/kg, ip administered for 14 days relative to control; format: functional, organism-based; conditions: time 14.0 day
[34] = Toxicity in BALB/c nude mouse xenografted with human HCT-116 cells assessed as change in body weight at 20 mg/kg, ip administered for 14 days; format: organism-based; conditions: in vivo, 336 h, time 14 day
HCT-116 [35] = assay: Induction of apoptosis in human HCT-116 cells assessed as early apoptotic cells at 0.25 uM incubated for 48 hrs by Annexin V-PE/7-AAD staining based flow cytometry analysis (reference value: 6.78 %); format: functional
HCT-116 [36] = assay: Induction of apoptosis in human HCT-116 cells assessed as viable cells at 0.5 uM incubated for 48 hrs by Annexin V-PE/7-AAD staining based flow cytometry analysis (reference value: 92.8 %); format: functional; conditions: read-out: Activity
[37] = Cmax in BALB/c mouse at 20 mg/kg, po and measured after 24 hrs by LC-MS/MS analysis; format: ADME, organism-based; conditions: in vivo
HCT-116 [38] = assay: Antiproliferative activity against human HCT-116 cells transfected with PARP1 siRNA assessed as inhibition of cell viability at 0.5 uM incubated for 72 hrs by CCK8 assay; format: functional, cell-based
HCT-116 [39] = assay: Induction of apoptosis in human HCT-116 cells assessed as late apoptotic cells at 0.5 uM incubated for 48 hrs by Annexin V-PE/7-AAD staining based flow cytometry analysis (reference value: 0.39 %); format: functional

T1 sequence (P09874 whole entry): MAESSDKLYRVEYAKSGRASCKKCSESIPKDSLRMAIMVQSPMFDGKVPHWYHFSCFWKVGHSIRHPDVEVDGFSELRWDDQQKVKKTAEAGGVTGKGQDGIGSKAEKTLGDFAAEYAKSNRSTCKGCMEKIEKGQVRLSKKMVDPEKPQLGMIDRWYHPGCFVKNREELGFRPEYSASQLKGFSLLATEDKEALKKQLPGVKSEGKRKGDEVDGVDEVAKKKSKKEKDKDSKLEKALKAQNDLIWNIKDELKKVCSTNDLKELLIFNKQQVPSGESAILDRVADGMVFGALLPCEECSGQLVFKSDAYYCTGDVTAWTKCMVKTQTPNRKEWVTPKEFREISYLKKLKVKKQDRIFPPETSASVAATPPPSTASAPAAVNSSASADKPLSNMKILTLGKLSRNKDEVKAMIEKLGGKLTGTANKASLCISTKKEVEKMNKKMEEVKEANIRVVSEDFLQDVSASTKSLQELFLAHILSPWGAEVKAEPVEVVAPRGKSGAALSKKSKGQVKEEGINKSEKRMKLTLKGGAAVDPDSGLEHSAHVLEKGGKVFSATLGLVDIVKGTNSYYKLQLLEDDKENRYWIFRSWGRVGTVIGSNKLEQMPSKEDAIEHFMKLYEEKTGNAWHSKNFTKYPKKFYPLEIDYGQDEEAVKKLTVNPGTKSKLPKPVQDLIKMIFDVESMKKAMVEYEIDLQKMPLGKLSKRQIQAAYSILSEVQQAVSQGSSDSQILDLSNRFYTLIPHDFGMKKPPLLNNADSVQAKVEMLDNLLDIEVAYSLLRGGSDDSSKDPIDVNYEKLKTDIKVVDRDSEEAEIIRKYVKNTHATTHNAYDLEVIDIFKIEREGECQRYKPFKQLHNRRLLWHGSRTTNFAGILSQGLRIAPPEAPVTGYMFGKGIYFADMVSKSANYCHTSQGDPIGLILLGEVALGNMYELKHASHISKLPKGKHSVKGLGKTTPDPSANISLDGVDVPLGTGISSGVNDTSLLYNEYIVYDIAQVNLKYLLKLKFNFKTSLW

What does the source list for `O=C1Nc2ccccc2/C1=C1/Nc2ccccc2/C1=N\OCCCC(=O)N1CCN(C(=O)c2ccc(Cc3n[nH]c(=O)c4ccccc34)cc2F)CC1`?
AUCt [1]: 5900 ng·h/mL; Activity [2]: Non-Toxic; Activity (HCT-116 [3]): Active; Activity (HCT-116 [4]): 7.01%; AUC [5]: 6450 ng·h/mL; Activity (HCT-116 [6]): Dose-Dependent Effect; Activity (HCT-116 [7]): Dose-Dependent Effect; Activity (HCT-116 [8]): Active; IC50 (A549): 3260 nM; Activity (HCT-116 [9]): Dose-Dependent Effect; IC50 (NCM460): > 60000 nM; Activity (HCT-116 [10]): 1.76%; Activity (HCT-116 [11]): 0.28%; half-life [12]: 5.82 h; Activity (HCT-116 [13]): 0.11%; viability at 0.25 µM (HCT-116 [14]): 89.3%; Activity (HCT-116 [15]): Dose-Dependent Effect; Activity (HCT-116 [16]): Dose-Dependent Effect; IC50 (MV4-11): 520 nM; Activity (HCT-116 [17]): 41.03%; viability at 1 µM (HCT-116 [18]): 69.4%; Activity (HCT-116 [19]): Dose-Dependent Effect; Activity (HCT-116 [20]): Dose-Dependent Effect; Activity (HCT-116 [21]): 10.5%; inhibition in vivo at 10 mg/kg (HCT-116 [22]): 75.9%; Activity (HCT-116 [23]): Dose-Dependent Effect; Activity (HCT-116 [24]): 22.7%; IC50 [25]: 1.89 nM; inhibition in vivo at 20 mg/kg (HCT-116 [26]): 86.6%; Activity (HCT-116 [27]): 0.12%; IC50 (MCF7): 1600 nM; inhibition [28]: 64.8%; CL [29]: 51.65 mL/min/kg; IC50 (HCT-116 [30]): 310 nM; inhibition [31]: Dose-Dependent Effect; Activity (HCT-116 [32]): 14.6%; Activity (HCT-116 [33]): Active; Activity [34]: Non-Toxic; Activity (HCT-116 [35]): 8.64%; viability at 0.5 µM (HCT-116 [36]): 83.7%; Cmax [37]: 6040 ng/mL; Activity (HCT-116 [38]): inactive; Activity (HCT-116 [39]): 1.05%
